# According to PMC9124699 (International Journal of Nanomedicine, 2022):
# Read-outs that look alike come from different tables or passages of the source.
# Key:
# [1] = no reference given, cited from earlier work
# [2] = no reference given, cited from earlier work; remark: listed apart in the source
# [3] = 1 mg intravenous administration; no reference given; cited from earlier work
# [4] = Degradation of LEU and L18FCs and conversion to LEU in human plasma; format: in vitro ADME
compound,measurement,setting,value
CCCCCCCCCCCCCCCCCC(=O)O [Stearic acid],log P,"[1]; C18 fatty acids, Table 2",8.23
leuprolide acetate [LEU acetate],Solubility,[2]; in water,≥ 66.66 mg/mL (52.51 mM) in water
same,Half life,[3],3 h
same,log P,"[1]; LEU acetate, Table 1",−2.7–1.07
"CCNC(=O)[C@@H]1CCCN1C(=O)[C@H](CCCNC(=N)N)NC(=O)[C@H](CC(C)C)NC(=O)[C@@H](CC(C)C)NC(=O)[C@H](Cc1ccc(O)cc1)NC(=O)[C@H](CO)NC(=O)[C@H](Cc1c[nH]c2ccccc12)NC(=O)[C@H](Cc1c[nH]cn1)NC(=O)[C@@H]1CCC(=O)N1 [LEU, leuprolide]",Solubility in phosphate buffered solution (PBS),"[2]; PBS, introduction statement",approximately 10 mg/mL
same,"metabolised at 840 h, 1 mg/mL",[4],~45.8%
CCCCC/C=C\C/C=C\CCCCCCCC(=O)O [Linoleic acid],log P,"[1]; C18 fatty acids, Table 2",7.05
CCCCCCCC/C=C\CCCCCCCC(=O)O [Oleic acid],log P,"[1]; C18 fatty acids, Table 2",7.64
